Experimental data from BindingDB's records for doi:10.1021/jm100984y (The University of Queensland, 2010).

Molecular target: T1, Proteinase-activated receptor 2 (Homo sapiens, UniProt P55085)
T1 sequence (P55085 whole entry): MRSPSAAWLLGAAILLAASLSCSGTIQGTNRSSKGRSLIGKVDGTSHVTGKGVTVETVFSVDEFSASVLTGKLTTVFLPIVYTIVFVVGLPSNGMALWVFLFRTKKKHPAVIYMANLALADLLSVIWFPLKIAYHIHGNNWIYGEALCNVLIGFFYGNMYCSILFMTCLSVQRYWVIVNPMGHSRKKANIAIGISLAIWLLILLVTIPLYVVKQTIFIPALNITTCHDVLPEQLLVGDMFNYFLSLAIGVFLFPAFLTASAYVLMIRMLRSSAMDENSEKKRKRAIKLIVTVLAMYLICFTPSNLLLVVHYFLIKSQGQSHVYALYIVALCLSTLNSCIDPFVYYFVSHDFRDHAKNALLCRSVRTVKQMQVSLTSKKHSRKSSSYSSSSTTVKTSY
Experiment: Agonist activity at PAR2 receptor in human HT-29 cells assessed as induction of intracellular calcium release

- EC50: 316 nM
Compound: CC[C@H](C)[C@H](NC(=O)[C@H](CC1CCCCC1)NC(=O)c1ccno1)C(=O)Nc1ccc(CC(=O)N2CCC(CN)CC2)cc1 [5-Isoxazoyl-Cha-Ile-4-aminophenyl-(4-[aminomethyl]piperidin-1-yl)ethan-2-one]
